Measurements as given in PubChem BioAssay (NCI).
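The compound was tested at five concentrations on cells cultured in 96-well plates, with a 48-hour exposure period. GI50 = concentration required for 50% inhibition of growth. TGI is the concentration that stops growth completely.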

Key:
Assay in all cases: growth of human tumour cells (NCI), 48 h
SNB-19 CNS = test system: SNB-19 CNS
CAKI-1 renal = test system: CAKI-1 renal
SK-OV-3 ovarian = test system: SK-OV-3 ovarian
MDA-MB-435 = test system: MDA-MB-435
UO-31 renal = test system: UO-31 renal
A549 NSCLC = test system: A549 NSCLC
HOP-62 NSCLC = test system: HOP-62 NSCLC
SF-295 CNS = test system: SF-295 CNS
BT-549 breast = test system: BT-549 breast
OVCAR-5 ovarian = test system: OVCAR-5 ovarian
HCT-116 colon = test system: HCT-116 colon
HOP-92 NSCLC = test system: HOP-92 NSCLC
DU-145 prostate = test system: DU-145 prostate
OVCAR-8 ovarian = test system: OVCAR-8 ovarian
SR leukemia = test system: SR leukemia
SK-MEL-2 melanoma = test system: SK-MEL-2 melanoma
MALME-3M melanoma = test system: MALME-3M melanoma
NCI-H23 lung = test system: NCI-H23 lung
SF-268 CNS = test system: SF-268 CNS
OVCAR-4 ovarian = test system: OVCAR-4 ovarian
COLO 205 colon = test system: COLO 205 colon
NCI-H460 lung = test system: NCI-H460 lung
SK-MEL-28 melanoma = test system: SK-MEL-28 melanoma
LOX IMVI melanoma = test system: LOX IMVI melanoma
T-47D breast = test system: T-47D breast
RPMI-8226 leukemia = test system: RPMI-8226 leukemia
A498 renal = test system: A498 renal
NCI-H226 lung = test system: NCI-H226 lung
HCC-2998 colon = test system: HCC-2998 colon
RXF 393 renal = test system: RXF 393 renal
CCRF-CEM leukemia = test system: CCRF-CEM leukemia
ACHN renal = test system: ACHN renal
786-0 renal = test system: 786-0 renal
HT29 colon = test system: HT29 colon
MOLT-4 leukemia = test system: MOLT-4 leukemia
UACC-257 melanoma = test system: UACC-257 melanoma
SF-539 CNS = test system: SF-539 CNS
NCI-H522 lung = test system: NCI-H522 lung
HS 578T breast = test system: HS 578T breast
KM12 colon = test system: KM12 colon
TK-10 renal = test system: TK-10 renal
PC-3 prostate = test system: PC-3 prostate
K-562 leukemia = test system: K-562 leukemia
SK-MEL-5 melanoma = test system: SK-MEL-5 melanoma
MDA-MB-231 breast = test system: MDA-MB-231 breast
UACC-62 melanoma = test system: UACC-62 melanoma
EKVX NSCLC = test system: EKVX NSCLC
U251 CNS = test system: U251 CNS
NCI/ADR-RES ovarian = test system: NCI/ADR-RES ovarian
IGROV1 ovarian = test system: IGROV1 ovarian
SN12C renal = test system: SN12C renal
SNB-75 CNS = test system: SNB-75 CNS
HCT-15 colon = test system: HCT-15 colon
SW-620 colon = test system: SW-620 colon
MCF7 breast = test system: MCF7 breast
M14 melanoma = test system: M14 melanoma
OVCAR-3 ovarian = test system: OVCAR-3 ovarian

Work on `O=C(Nc1nc(-c2ccccc2Cl)cs1)c1cc(-c2ccc(Cl)cc2)nc2ccc(Cl)cc12` yielded a GI50 (SNB-19 CNS) of 3.79 µM, a TGI (SNB-19 CNS) of 67.2 µM and a GI50 (CAKI-1 renal) of 19.6 µM. For the same compound, the TGI (CAKI-1 renal) was greater than 100 µM, the GI50 (SK-OV-3 ovarian) was 26 µM and the TGI (SK-OV-3 ovarian) was greater than 100 µM. It also gave a GI50 (MDA-MB-435) of 1.71 µM, a TGI (MDA-MB-435) of 4.72 µM and a GI50 (UO-31 renal) of 2.46 µM. It also gave a TGI (UO-31 renal) of 52.6 µM, a GI50 (A549 NSCLC) of 39.2 µM and a TGI (A549 NSCLC) greater than 100 µM. It also gave a GI50 (HOP-62 NSCLC) of 3.73 µM, a TGI (HOP-62 NSCLC) of 45 µM and a GI50 (SF-295 CNS) of 3.16 µM. The TGI (SF-295 CNS) was 23.3 µM, the GI50 (BT-549 breast) was 2.44 µM and the TGI (BT-549 breast) was 6.99 µM. For the same compound, the GI50 (OVCAR-5 ovarian) was 23.1 µM, the TGI (OVCAR-5 ovarian) was greater than 100 µM and the GI50 (HCT-116 colon) was 0.395 µM. It also gave a TGI (HCT-116 colon) of 13.2 µM, a GI50 (HOP-92 NSCLC) of 1.42 µM and a TGI (HOP-92 NSCLC) of 8.43 µM. It also gave a GI50 (DU-145 prostate) of 4.24 µM, a TGI (DU-145 prostate) greater than 100 µM and a GI50 (OVCAR-8 ovarian) of 1.19 µM. It also gave a TGI (OVCAR-8 ovarian) of 16.2 µM, a GI50 (SR leukemia) of 3.15 µM and a TGI (SR leukemia) greater than 100 µM. The GI50 (SK-MEL-2 melanoma) was 7.81 µM, the TGI (SK-MEL-2 melanoma) was greater than 100 µM and the GI50 (MALME-3M melanoma) was 4.77 µM. For the same compound, the TGI (MALME-3M melanoma) was 47.7 µM, the GI50 (NCI-H23 lung) was 3.8 µM and the TGI (NCI-H23 lung) was greater than 100 µM. The GI50 (SF-268 CNS) was 2.37 µM, the TGI (SF-268 CNS) was 32.9 µM and the GI50 (OVCAR-4 ovarian) was 9.92 µM. The TGI (OVCAR-4 ovarian) was greater than 100 µM, the GI50 (COLO 205 colon) was 33.6 µM and the TGI (COLO 205 colon) was greater than 100 µM. For the same compound, the GI50 (NCI-H460 lung) was 31.8 µM, the TGI (NCI-H460 lung) was greater than 100 µM and the GI50 (SK-MEL-28 melanoma) was 5.61 µM. It also gave a TGI (SK-MEL-28 melanoma) greater than 100 µM, a GI50 (LOX IMVI melanoma) of 0.457 µM and a TGI (LOX IMVI melanoma) of 20.8 µM. It also gave a GI50 (T-47D breast) of 22.5 µM, a TGI (T-47D breast) greater than 100 µM and a GI50 (RPMI-8226 leukemia) of 1.38 µM. For the same compound, the TGI (RPMI-8226 leukemia) was greater than 100 µM, the GI50 (A498 renal) was 27.4 µM and the TGI (A498 renal) was greater than 100 µM. It also gave a GI50 (NCI-H226 lung) of 2.32 µM, a TGI (NCI-H226 lung) of 8.54 µM and a GI50 (HCC-2998 colon) of 5.61 µM. For the same compound, the TGI (HCC-2998 colon) was greater than 100 µM, the GI50 (RXF 393 renal) was 10.3 µM and the TGI (RXF 393 renal) was greater than 100 µM. The GI50 (CCRF-CEM leukemia) was 3.54 µM, the TGI (CCRF-CEM leukemia) was greater than 100 µM and the GI50 (ACHN renal) was 3.84 µM. It also gave a TGI (ACHN renal) of 78.2 µM, a GI50 (786-0 renal) of 2.84 µM and a TGI (786-0 renal) of 20 µM. It also gave a GI50 (HT29 colon) of 3.52 µM, a TGI (HT29 colon) greater than 100 µM and a GI50 (MOLT-4 leukemia) of 3.42 µM. The TGI (MOLT-4 leukemia) was greater than 100 µM, the GI50 (UACC-257 melanoma) was 14.9 µM and the TGI (UACC-257 melanoma) was greater than 100 µM. For the same compound, the GI50 (SF-539 CNS) was 2.12 µM, the TGI (SF-539 CNS) was 8.31 µM and the GI50 (NCI-H522 lung) was 3.48 µM. For the same compound, the TGI (NCI-H522 lung) was 42.6 µM, the GI50 (HS 578T breast) was 2.67 µM and the TGI (HS 578T breast) was 25.7 µM. It also gave a GI50 (KM12 colon) of 3.5 µM, a TGI (KM12 colon) of 69.5 µM and a GI50 (TK-10 renal) of 15 µM. It also gave a TGI (TK-10 renal) greater than 100 µM, a GI50 (PC-3 prostate) of 3.25 µM and a TGI (PC-3 prostate) of 34.5 µM. It also gave a GI50 (K-562 leukemia) of 3.66 µM, a TGI (K-562 leukemia) greater than 100 µM and a GI50 (SK-MEL-5 melanoma) of 2.51 µM. It also gave a TGI (SK-MEL-5 melanoma) of 9.07 µM, a GI50 (MDA-MB-231 breast) of 2.27 µM and a TGI (MDA-MB-231 breast) of 15.2 µM. It also gave a GI50 (UACC-62 melanoma) of 2.47 µM, a TGI (UACC-62 melanoma) of 26 µM and a GI50 (EKVX NSCLC) of 7.18 µM. The TGI (EKVX NSCLC) was greater than 100 µM, the GI50 (U251 CNS) was 3.42 µM and the TGI (U251 CNS) was 28.6 µM. It also gave a GI50 (NCI/ADR-RES ovarian) of 1.73 µM, a TGI (NCI/ADR-RES ovarian) greater than 100 µM and a GI50 (IGROV1 ovarian) of 2.99 µM. It also gave a TGI (IGROV1 ovarian) greater than 100 µM, a GI50 (SN12C renal) of 0.895 µM and a TGI (SN12C renal) of 76.9 µM. For the same compound, the GI50 (SNB-75 CNS) was 3.38 µM, the TGI (SNB-75 CNS) was greater than 100 µM and the GI50 (HCT-15 colon) was 1.93 µM. The TGI (HCT-15 colon) was 40 µM, the GI50 (SW-620 colon) was 4.01 µM and the TGI (SW-620 colon) was greater than 100 µM. For the same compound, the GI50 (MCF7 breast) was 0.678 µM, the TGI (MCF7 breast) was greater than 100 µM and the GI50 (M14 melanoma) was 0.918 µM. It also gave a TGI (M14 melanoma) of 4.76 µM, a GI50 (OVCAR-3 ovarian) of 2.64 µM and a TGI (OVCAR-3 ovarian) of 13.1 µM.
